“And” between values parts separate entries of the source, which are not always exact repeats. Identical values can stand only once.
System: 857933-349-R-J2-PDC complex spheroids, viability
Assay: Anticancer human tumor 857933-349-R-J2-PDC patient-derived colon adenocarcinoma cell line growth inhibition [GQUAD]
Conditions: for viability, T/C: stronger effect = lower value
Source text: DNA G-quadruplex Stabilizer Agents in Combinations in Complex Spheroids
A high-throughput screen of multi-cell type tumor spheroids was designed to identify active combinations of DNA G-quadruplex stabilizer agents and targeted small molecules. Complex spheroids include a stromal component modeled by human endothelial cells (HUVEC) and fibroblasts modeled by human mesenchymal stem cells (MSCs). The concentration ranges selected for each drug and investigational agent were based upon clinically achievable concentrations if the clinical Cmax of the agent was known.
Compounds. The drugs and investigational agents: pidnarulex (CX-5461; NSC782164), APTO-253 (NSC789042), BRACO-19 (NSC847499), peposertib (NSC802822), ceralasertib (NSC780249), elimusertib (NSC800525), camonsertib (NSC841442), AZD-1390 (NSC803789), olaparib (NSC753686), talazoparib (NSC767125), ART-558 (NSC835418), sotorasib (NSC818433), MRTX-1133 (NSC836407), SN-38 (NSC673596), topotecan (NSC609699), etoposide (NSC141540), doxorubicin (NSC123127), gemcitabine (NSC613327), 5-fluorouracil (NSC19893), paclitaxel (NSC125973), vemurafenib (NSC761431), panobinostat (NSC761190), R-306465 (JNJ-16241199; NSC773264), adavosertib (NSC754352), TP-3654 (NSC805149), carboplatin (NSC241240), KSQ-4279 (NSC840948), and staurosporine (NSC755774) were obtained from the National Cancer Institute (NCI) Developmental Therapeutics Program Chemical Repository (34). The FDA-approved anticancer drug set is available from the NCI Developmental Therapeutics Program. […] The stock solutions were prepared in dimethyl sulfoxide (DMSO, Sigma-Aldrich, St. Louis, MO, cat. D2650) at 800-fold the tested concentration and stored at -70 degrees C prior to their use. All drugs and investigational agents were tested over a range starting from a high concentration at or near the clinical Cmax and decreasing in half-log increments. If the clinical Cmax for an agent had not been determined, the highest concentration tested was 10 microM.
2.3 Cell Culture. All cells were maintained in an incubator at 37 degrees C and 5% CO2 with 95% humidity. The PDC lines were cultured according to standard operating procedures established by the NCI PDMR. All PDCs were thawed and cultured in Matrigel-coated flasks prepared with a working solution of 1X Ham's F-12 nutrient mix, without supplementation (Invitrogen, cat. 11765054), 100 U/mL penicillin-streptomycin (Invitrogen, cat. 15140122), and 2.5% Matrigel (Corning Inc., cat. 354248) for the first three passages. The 857933-349-R-J2-PDC line was cultured in 6C/Colon 1B media, which includes advanced DMEM/F-12 (Thermo Fisher Scientific, cat. 12634028), 10 mM HEPES (Thermo Fisher Scientific, cat. 15630080), 1X GlutaMAX supplement (Thermo Fisher Scientific, cat. 35050061), 0.1 mg/mL primocin (InvivoGen, cat. ant-pm-2), 10% defined fetal bovine serum, heat inactivated (HyClone Laboratories Inc., cat. SH30070.03HI), 50% L-WRN conditioned media (ATCC, cat. CRL-3276), 1.25 mM N-Acetyl-L-cysteine (Sigma-Aldrich, cat. A9165), 10 mM nicotinamide (Sigma-Aldrich, cat. N0636), 1X B-27 supplement (Thermo Fisher Scientific, cat. 17504044), 1X N-2 supplement (Thermo Fisher Scientific, cat. 17502048), 10 microM Y-27632 dihydrochloride (Tocris Bioscience, cat. 1254), and 50 ng/mL human EGF recombinant protein (Thermo Fisher Scientific, cat. PHG0311). The 485176-168-R4-J1-PDC line was cultured in Panc media, which includes all 6C/Colon 1B media components plus 100 ng/mL human FGF-10 (Thermo Fisher Scientific, cat. 100-26), 500 nM SB-431542 (Selleckchem, cat. S1067), and gastrin (Tocris, cat. 3006).
[…]
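Also: spheroids exposed to compounds for one week before readout.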
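For viability, T/C in this document: percent viability relative to vehicle DMSO wells taken as 100%.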

For `COc1cccc2c1C(=O)c1c(O)c3c(c(O)c1C2=O)CC(O)(C(=O)CO)CC3OC1CC(N)C(O)C(C)O1` (stereo not drawn), the viability, T/C (compound 0.0316 µM) was 84.6% and 101% and 86.6%, the viability, T/C (compound 0.1 µM) was 60% and 94.5% and 51.8% and the viability, T/C (compound 0.316 µM) was 57.6% and 71.5% and 49.7%. The viability, T/C (compound 1 µM) was 43.2% and 45.9% and 44.8%, the viability, T/C (compound 3.16 µM) was 7.65% and 8.98% and 6.13% and the viability, T/C (compound 10 µM) was 0.27% and 0.59% and 0.13%. The IC50 (curve of compound) was 415 nM and 751 nM and 277 nM.

With `CC1COCCN1c1cc(-c2ccnn2C)c2ccnc(-c3ccn[nH]3)c2n1` (stereo not drawn) the viability, T/C (compound 0.0316 µM) was 75.8% and 95.2% and 75.5%, the viability, T/C (compound 0.1 µM) was 52.4% and 84.3% and 52.1% and the viability, T/C (compound 0.316 µM) was 50.2% and 75.8% and 40.3%. The viability, T/C (compound 1 µM) was 46.9% and 63.2% and 44.1%, the viability, T/C (compound 3.16 µM) was 55.8% and 55.3% and 45.5% and the viability, T/C (compound 10 µM) was 51.8% and 61.9% and 43.6%.

For `CC(C)n1c(=O)n(C)c2cnc3cc(F)c(-c4ccc(OCCCN5CCCCC5)nc4)cc3c21` + Cc1[nH]c2ccc(F)cc2c1-c1nc2c3cccnc3c3ncccc3c2[nH]1, the IC50 (curve of first compound, second compound 0.0316 µM) was over 10000 nM, the IC50 (curve of first compound, second compound 0.1 µM) was over 10000 nM and the IC50 (curve of first compound, second compound 0.316 µM) was over 10000 nM. The IC50 (curve of first compound, second compound 1 µM) was over 10000 nM, the IC50 (curve of first compound, second compound 3.16 µM) was over 10000 nM and the IC50 (curve of first compound, second compound 10 µM) was over 10000 nM. It also gave a viability, T/C (second compound 0.0316 µM, first compound 0.0316 µM) of 100%, a viability, T/C (second compound 0.0316 µM, first compound 0.1 µM) of 102% and a viability, T/C (second compound 0.0316 µM, first compound 0.316 µM) of 107%. The viability, T/C (second compound 0.0316 µM, first compound 1 µM) was 102%, the viability, T/C (second compound 0.0316 µM, first compound 3.16 µM) was 107% and the viability, T/C (second compound 0.0316 µM, first compound 10 µM) was 84%. For the same molecule, the viability, T/C (second compound 0.1 µM, first compound 0.0316 µM) was 94.8%, the viability, T/C (second compound 0.1 µM, first compound 0.1 µM) was 115% and the viability, T/C (second compound 0.1 µM, first compound 0.316 µM) was 98.5%. The viability, T/C (second compound 0.1 µM, first compound 1 µM) was 95.4%, the viability, T/C (second compound 0.1 µM, first compound 3.16 µM) was 105% and the viability, T/C (second compound 0.1 µM, first compound 10 µM) was 79.9%. It also gave a viability, T/C (second compound 0.316 µM, first compound 0.0316 µM) of 102%, a viability, T/C (second compound 0.316 µM, first compound 0.1 µM) of 101% and a viability, T/C (second compound 0.316 µM, first compound 0.316 µM) of 102%. It also gave a viability, T/C (second compound 0.316 µM, first compound 1 µM) of 107%, a viability, T/C (second compound 0.316 µM, first compound 3.16 µM) of 110% and a viability, T/C (second compound 0.316 µM, first compound 10 µM) of 83.5%. It also gave a viability, T/C (second compound 1 µM, first compound 0.0316 µM) of 98.4%, a viability, T/C (second compound 1 µM, first compound 0.1 µM) of 106% and a viability, T/C (second compound 1 µM, first compound 0.316 µM) of 101%. For the same molecule, the viability, T/C (second compound 1 µM, first compound 1 µM) was 107%, the viability, T/C (second compound 1 µM, first compound 3.16 µM) was 128% and the viability, T/C (second compound 1 µM, first compound 10 µM) was 79.3%. For the same molecule, the viability, T/C (second compound 3.16 µM, first compound 0.0316 µM) was 105%, the viability, T/C (second compound 3.16 µM, first compound 0.1 µM) was 103% and the viability, T/C (second compound 3.16 µM, first compound 0.316 µM) was 115%. For the same molecule, the viability, T/C (second compound 3.16 µM, first compound 1 µM) was 98.6%, the viability, T/C (second compound 3.16 µM, first compound 3.16 µM) was 111% and the viability, T/C (second compound 3.16 µM, first compound 10 µM) was 83.8%. It also gave a viability, T/C (second compound 10 µM, first compound 0.0316 µM) of 102%, a viability, T/C (second compound 10 µM, first compound 0.1 µM) of 103% and a viability, T/C (second compound 10 µM, first compound 0.316 µM) of 108%. The viability, T/C (second compound 10 µM, first compound 1 µM) was 103%, the viability, T/C (second compound 10 µM, first compound 3.16 µM) was 103% and the viability, T/C (second compound 10 µM, first compound 10 µM) was 88.9%.

`CC(C)(O)C1CCC(Nc2ccc3ncc(-c4cccc(C(F)(F)F)c4)n3n2)CC1` (stereo not drawn) was tested, and the viability, T/C (compound 0.0316 µM) was 106% and 103% and 98.1%, the viability, T/C (compound 0.1 µM) was 94% and 102% and 87.3% and the viability, T/C (compound 0.316 µM) was 89% and 96.2% and 80.1%. For the same molecule, the viability, T/C (compound 1 µM) was 36.2% and 39.3% and 10.5%, the viability, T/C (compound 3.16 µM) was 2.72% and 3.1% and 0.35% and the viability, T/C (compound 10 µM) was 2.99% and 3.23% and 0.57%. The IC50 (curve of compound) was 734 nM and 803 nM and 519 nM.

`O=c1[nH]cc(F)c(=O)[nH]1` was tested, and the viability, T/C (compound 0.0316 µM) was 105% and 101% and 108%, the viability, T/C (compound 0.1 µM) was 88% and 103% and 95.2% and the viability, T/C (compound 0.316 µM) was 99.2% and 102% and 99.4%. The viability, T/C (compound 1 µM) was 69.5% and 66.1% and 91.1%, the viability, T/C (compound 3.16 µM) was 35.9% and 40.5% and 63.2% and the viability, T/C (compound 10 µM) was 22.8% and 19.8% and 47.5%. The IC50 (curve of compound) was 1950 nM and 2010 nM and 8270 nM.

With `C=CC(=O)N1CCN(c2nc(=O)n(-c3c(C)ccnc3C(C)C)c3nc(-c4c(O)cccc4F)c(F)cc23)C(C)C1` (stereo not drawn) the viability, T/C (compound 0.0316 µM) was 106% and 112% and 111%, the viability, T/C (compound 0.1 µM) was 94.1% and 102% and 90.6% and the viability, T/C (compound 0.316 µM) was 100% and 107% and 103%. The viability, T/C (compound 1 µM) was 102% and 110% and 106%, the viability, T/C (compound 3.16 µM) was 107% (2×) and 108% and the viability, T/C (compound 10 µM) was 90.5% and 111% and 101%. The IC50 (curve of compound) was over 10000 nM.

`O=C(c1cc(Cc2n[nH]c(=O)c3ccccc23)ccc1F)N1CCN(C(=O)C2CC2)CC1` was tested, and the viability, T/C (compound 0.0316 µM) was 99.4% and 111% and 122%, the viability, T/C (compound 0.1 µM) was 104% and 105% and 95.9% and the viability, T/C (compound 0.316 µM) was 90.5% and 106% and 98.7%. The viability, T/C (compound 1 µM) was 92.2% and 107% and 88.4%, the viability, T/C (compound 3.16 µM) was 108% and 98.6% and 97% and the viability, T/C (compound 10 µM) was 101% and 106% and 96%. It also gave an IC50 (curve of compound) of over 10000 nM.

— PubChem BioAssay AID2060491 (Molecular Pharmacology Branch, DTP, NCI, 2025)
